Measurements from ChEMBL document CHEMBL4028808, “Design and synthesis of selective CDK8/19 dual inhibitors: Discovery of 4,5-dihydrothieno[3',4':3,4]benzo[1,2-d]isothiazole derivatives” (Bioorg Med Chem, 2017).
Values after ≈ are worked out from the molar mass of the structure shown. Active and inactive are the calls of the source. The rule behind the calls is not given here.

Key:
RPMI-8226 [1] = test: Antitumor activity against human RPMI8226 cells xenografted in C.B17/Icr scid/scid Jcl mouse assessed as tumor growth suppression at 2.5 mg/kg, po qd administered for 14 days measured post last dose relative to control; type: functional
RPMI-8226 [2] = test: Antitumor activity against human RPMI8226 cells xenografted in C.B17/Icr scid/scid Jcl mouse assessed as tumor growth suppression at 1.25 mg/kg, po bid administered for 14 days measured post last dose relative to control; type: functional
[3] = Aqueous solubility of the compound in DMSO at pH 6.8 by HPLC method; type: physicochemical
[4] = molecular target: T1, Cyclin-dependent kinase 19 (Homo sapiens, UniProt Q9BWU1); test: Binding affinity to partial length wild-type human CDK19 (M1 to N360 residues) expressed in bacterial expression system by KINOMEscan assay
T1 sequence (Q9BWU1 whole entry, the tested form may be a part): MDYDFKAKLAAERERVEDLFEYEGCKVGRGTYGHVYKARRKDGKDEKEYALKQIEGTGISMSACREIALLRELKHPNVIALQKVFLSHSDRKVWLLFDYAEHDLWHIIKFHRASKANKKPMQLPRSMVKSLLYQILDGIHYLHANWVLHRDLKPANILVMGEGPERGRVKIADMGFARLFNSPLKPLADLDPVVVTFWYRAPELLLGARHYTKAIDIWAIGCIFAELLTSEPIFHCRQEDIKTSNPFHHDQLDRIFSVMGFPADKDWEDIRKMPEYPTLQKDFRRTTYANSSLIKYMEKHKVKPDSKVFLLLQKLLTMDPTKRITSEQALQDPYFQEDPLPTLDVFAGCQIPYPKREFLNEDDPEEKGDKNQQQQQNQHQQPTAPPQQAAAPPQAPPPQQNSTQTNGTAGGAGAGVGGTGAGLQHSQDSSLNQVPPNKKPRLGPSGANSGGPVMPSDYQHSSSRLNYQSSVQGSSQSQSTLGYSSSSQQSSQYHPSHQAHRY

[5] = molecular target: T2, Cyclin-dependent kinase 8 (Homo sapiens, UniProt P49336); test: Binding affinity to partial length wild-type human CDK8 (M1 to T360residues) expressed in bacterial expression system by kinome scan assay
T2 sequence (P49336 whole entry, the tested form may be a part): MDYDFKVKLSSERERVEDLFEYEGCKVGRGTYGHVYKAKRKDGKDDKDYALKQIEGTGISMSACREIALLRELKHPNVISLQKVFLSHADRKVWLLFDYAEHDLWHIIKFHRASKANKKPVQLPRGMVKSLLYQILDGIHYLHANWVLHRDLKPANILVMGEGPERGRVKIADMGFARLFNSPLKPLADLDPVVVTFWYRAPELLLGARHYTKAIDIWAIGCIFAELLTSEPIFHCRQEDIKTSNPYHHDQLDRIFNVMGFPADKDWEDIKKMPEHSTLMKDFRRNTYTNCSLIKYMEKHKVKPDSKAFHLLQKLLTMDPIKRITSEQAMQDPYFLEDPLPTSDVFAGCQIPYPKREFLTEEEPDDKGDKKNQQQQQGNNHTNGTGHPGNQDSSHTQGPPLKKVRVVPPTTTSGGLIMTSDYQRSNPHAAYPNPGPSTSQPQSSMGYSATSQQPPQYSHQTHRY

[6] = molecular target: Mitogen-activated protein kinase kinase kinase 19 (Homo sapiens, UniProt Q56UN5); test: Binding affinity to partial length wild-type human YSK4 (T1019 to H1328 residues) expressed in bacterial expression system by kinome scan assay
[7] = molecular target: T3, Homeodomain-interacting protein kinase 1 (Homo sapiens, UniProt Q86Z02); test: Binding affinity to partial length human HIPK1 (M146 to I555 residues) expressed in mammalian expression system by kinome scan assay
Ephrin type-A receptor 3 = Ephrin type-A receptor 3 (Homo sapiens, UniProt P29320); test: Binding affinity to partial length wild-type human EPHA3 (D604 to K889 residues) expressed in bacterial expression system by kinome scan assay
Sequence of Ephrin type-A receptor 3 (P29320 whole entry, the tested form may be a part): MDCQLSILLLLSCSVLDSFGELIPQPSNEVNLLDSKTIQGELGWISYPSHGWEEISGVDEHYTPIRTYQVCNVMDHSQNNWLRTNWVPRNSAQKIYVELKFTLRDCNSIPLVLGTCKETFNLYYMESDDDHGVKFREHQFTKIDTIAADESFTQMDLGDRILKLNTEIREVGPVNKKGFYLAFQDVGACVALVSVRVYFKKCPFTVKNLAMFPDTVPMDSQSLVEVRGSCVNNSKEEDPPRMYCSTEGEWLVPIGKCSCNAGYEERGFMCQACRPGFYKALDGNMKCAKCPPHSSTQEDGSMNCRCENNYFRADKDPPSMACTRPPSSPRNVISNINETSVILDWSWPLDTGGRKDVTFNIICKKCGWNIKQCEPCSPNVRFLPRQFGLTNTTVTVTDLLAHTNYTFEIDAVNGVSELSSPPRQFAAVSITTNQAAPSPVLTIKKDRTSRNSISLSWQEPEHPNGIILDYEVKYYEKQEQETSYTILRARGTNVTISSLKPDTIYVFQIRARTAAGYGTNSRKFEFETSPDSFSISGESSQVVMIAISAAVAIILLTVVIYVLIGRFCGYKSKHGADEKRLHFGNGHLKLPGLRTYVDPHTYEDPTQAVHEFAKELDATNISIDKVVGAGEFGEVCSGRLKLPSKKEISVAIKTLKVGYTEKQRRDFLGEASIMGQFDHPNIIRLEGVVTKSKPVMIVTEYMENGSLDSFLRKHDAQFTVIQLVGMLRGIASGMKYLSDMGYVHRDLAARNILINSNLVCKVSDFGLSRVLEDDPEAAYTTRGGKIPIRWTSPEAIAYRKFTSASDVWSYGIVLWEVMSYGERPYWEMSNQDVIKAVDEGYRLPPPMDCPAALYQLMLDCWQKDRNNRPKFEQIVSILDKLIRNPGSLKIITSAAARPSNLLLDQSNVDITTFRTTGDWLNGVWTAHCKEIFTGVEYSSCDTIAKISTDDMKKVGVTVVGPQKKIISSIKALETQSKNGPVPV

[8] = Mean residence time in ICR mouse plasma at 0.1 mg/kg, iv administered as cassette dose by LC-MS/MS analysis; type: ADME, organism-based
[9] = Oral bioavailability in ICR mouse plasma at 1 mg/kg administered as cassette dose by LC-MS/MS analysis; type: ADME, organism-based
[10] = Half life in ICR mouse plasma at 0.1 mg/kg, iv or 1 mg/kg, po administered as cassette dose by LC-MS/MS analysis; type: ADME, organism-based
Mus musculus [11] = test: Toxicity in C.B17/Icr scid/scid Jcl mouse assessed as body weight loss at 1.25 mg/kg, po bid administered for 14 days measured post last dose; type: organism-based; conditions: in vivo, 336 h
Mus musculus [12] = test: Toxicity in C.B17/Icr scid/scid Jcl mouse assessed as body weight loss at 2.5 mg/kg, po qd administered for 14 days measured post last dose; type: organism-based; conditions: in vivo, 336 h
[13] = molecular target: CDK2/Cyclin A2 (Homo sapiens) (UniProt P24941+P20248); test: Inhibition of CDK2/cyclin A (unknown origin) at 1 uM using histone H1 as substrate preincubated for 5 mins followed by substrate addition measured after 20 mins in presence of [gamma33P]ATP by scintillation counter method relative to control; type: protein-complex assay
[14] = molecular target: Cyclin-dependent kinase 9 (Homo sapiens, UniProt P50750); test: Inhibition of CDK9 (unknown origin) at 1 uM relative to control
Sequence of Cyclin-dependent kinase 9 (P50750 whole entry): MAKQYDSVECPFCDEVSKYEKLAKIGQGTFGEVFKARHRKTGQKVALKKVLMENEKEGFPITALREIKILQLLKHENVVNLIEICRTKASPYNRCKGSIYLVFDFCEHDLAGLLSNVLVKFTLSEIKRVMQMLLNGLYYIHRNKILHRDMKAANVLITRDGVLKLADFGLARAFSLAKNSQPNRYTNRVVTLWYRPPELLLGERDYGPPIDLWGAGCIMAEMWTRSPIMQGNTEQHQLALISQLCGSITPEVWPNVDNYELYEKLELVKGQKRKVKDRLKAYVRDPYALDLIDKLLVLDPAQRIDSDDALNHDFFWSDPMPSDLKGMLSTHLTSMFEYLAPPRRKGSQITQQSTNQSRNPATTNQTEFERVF

[15] = molecular target: Mitogen-activated protein kinase kinase kinase 5 (Homo sapiens) (UniProt Q99683); test: Inhibition of ASK1 (unknown origin) at 1 uM using MBP as substrate preincubated for 5 mins followed by substrate addition measured after 60 mins in presence of [gamma33P]ATP by scintillation counter method relative to control
[16] = molecular target: Protein kinase C theta type (Homo sapiens) (UniProt Q04759); test: Inhibition of PKCtheta (unknown origin) at 1 uM using MBP as substrate preincubated for 5 mins followed by substrate addition measured after 60 mins in presence of [gamma33P]ATP by scintillation counter method relative to control
Sequence of Protein kinase C theta type (Homo sapiens) (Q04759 whole entry, looked up): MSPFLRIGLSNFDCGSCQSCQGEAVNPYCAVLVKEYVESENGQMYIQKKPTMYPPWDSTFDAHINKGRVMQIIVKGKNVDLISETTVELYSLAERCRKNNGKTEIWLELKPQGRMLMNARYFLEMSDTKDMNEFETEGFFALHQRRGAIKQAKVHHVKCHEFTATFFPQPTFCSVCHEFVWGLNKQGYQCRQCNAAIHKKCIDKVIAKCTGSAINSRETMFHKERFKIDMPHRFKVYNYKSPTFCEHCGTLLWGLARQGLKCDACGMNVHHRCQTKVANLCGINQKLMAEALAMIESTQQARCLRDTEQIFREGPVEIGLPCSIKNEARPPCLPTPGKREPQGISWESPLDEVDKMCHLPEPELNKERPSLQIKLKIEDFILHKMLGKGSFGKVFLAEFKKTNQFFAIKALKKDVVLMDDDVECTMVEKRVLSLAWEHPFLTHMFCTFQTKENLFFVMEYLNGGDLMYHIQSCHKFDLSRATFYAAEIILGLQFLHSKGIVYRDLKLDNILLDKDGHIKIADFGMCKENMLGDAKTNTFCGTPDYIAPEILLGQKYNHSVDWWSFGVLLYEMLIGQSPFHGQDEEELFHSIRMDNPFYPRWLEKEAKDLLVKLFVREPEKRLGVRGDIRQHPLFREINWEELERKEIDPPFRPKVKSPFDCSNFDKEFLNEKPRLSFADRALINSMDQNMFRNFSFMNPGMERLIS

[17] = molecular target: Dual specificity mitogen-activated protein kinase kinase 1 (Homo sapiens) (UniProt Q02750); test: Inhibition of MEK1 (unknown origin) at <1 uM using GST-ERK1 as substrate preincubated for 5 mins followed by substrate addition measured after 20 mins in presence of [gamma33P]ATP by scintillation counter method
[18] = molecular target: MAP kinase-activated protein kinase 2 (Homo sapiens) (UniProt P49137); test: Inhibition of MAPKAPK2 (unknown origin) at <1 uM using KKLNRTLSVA-NH2 as substrate preincubated for 5 mins followed by substrate addition measured after 10 mins in presence of [gamma33P]ATP by scintillation counter method
[19] = molecular target: Hepatocyte growth factor receptor (Homo sapiens) (UniProt P08581); test: Inhibition of cMET (unknown origin) at <1 uM
[20] = molecular target: Tyrosine-protein kinase JAK1 (Homo sapiens) (UniProt P23458); test: Inhibition of JAK1 (unknown origin) at <1 uM using biotinylated poly[Glu:Tyr] (4:1) as substrate pretreated for 5 mins followed by substrate addition measured after 10 mins by Alphascreen assay
Sequence of Tyrosine-protein kinase JAK1 (Homo sapiens) (P23458 whole entry, canonical isoform): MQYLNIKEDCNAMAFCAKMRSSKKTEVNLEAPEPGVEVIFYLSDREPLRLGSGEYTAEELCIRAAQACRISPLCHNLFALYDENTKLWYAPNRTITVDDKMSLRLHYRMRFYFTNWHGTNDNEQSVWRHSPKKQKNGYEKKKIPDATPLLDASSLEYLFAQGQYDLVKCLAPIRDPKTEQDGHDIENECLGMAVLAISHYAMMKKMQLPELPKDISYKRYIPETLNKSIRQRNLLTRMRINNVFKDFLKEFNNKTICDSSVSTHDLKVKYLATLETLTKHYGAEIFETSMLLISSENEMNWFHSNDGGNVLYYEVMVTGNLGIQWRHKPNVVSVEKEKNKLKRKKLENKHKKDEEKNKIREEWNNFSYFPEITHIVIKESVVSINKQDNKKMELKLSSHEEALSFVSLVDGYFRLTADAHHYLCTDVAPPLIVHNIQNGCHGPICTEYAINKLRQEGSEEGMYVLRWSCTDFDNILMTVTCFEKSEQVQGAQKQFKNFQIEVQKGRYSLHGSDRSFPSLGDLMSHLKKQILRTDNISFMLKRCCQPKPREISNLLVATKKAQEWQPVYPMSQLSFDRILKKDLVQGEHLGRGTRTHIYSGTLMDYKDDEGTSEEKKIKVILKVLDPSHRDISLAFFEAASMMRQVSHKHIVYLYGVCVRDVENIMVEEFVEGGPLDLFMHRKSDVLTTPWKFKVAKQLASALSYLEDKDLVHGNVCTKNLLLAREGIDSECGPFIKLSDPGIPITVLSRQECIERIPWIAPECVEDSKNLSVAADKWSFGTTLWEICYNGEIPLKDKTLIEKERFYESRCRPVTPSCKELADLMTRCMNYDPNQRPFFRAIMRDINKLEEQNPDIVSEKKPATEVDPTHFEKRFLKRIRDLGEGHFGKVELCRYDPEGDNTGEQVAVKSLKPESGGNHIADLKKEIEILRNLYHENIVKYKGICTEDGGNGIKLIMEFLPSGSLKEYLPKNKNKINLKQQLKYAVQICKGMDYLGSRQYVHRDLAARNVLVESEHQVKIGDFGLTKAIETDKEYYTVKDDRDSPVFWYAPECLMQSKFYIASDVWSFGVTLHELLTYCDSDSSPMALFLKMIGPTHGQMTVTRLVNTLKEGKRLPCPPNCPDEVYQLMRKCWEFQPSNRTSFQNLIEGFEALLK

[21] = molecular target: Phosphatidylinositol 4,5-bisphosphate 3-kinase catalytic subunit alpha isoform (Homo sapiens) (UniProt P42336); test: Inhibition of PI3Kalpha (unknown origin) at <1 uM
[22] = molecular target: Mitogen-activated protein kinase 14 (Homo sapiens) (UniProt Q16539); test: Inhibition of p38alpha (unknown origin) at <1 uM using MBP as substrate preincubated for 5 mins followed by substrate addition measured after 60 mins in presence of [gamma32P]ATP by scintillation counter method
[23] = molecular target: Mitogen-activated protein kinase kinase kinase 19 (Homo sapiens) (UniProt Q56UN5); test: Binding affinity to partial length wild-type human YSK4 (T1019 to H1328 residues) expressed in bacterial expression system assessed as unbound drug level at 300 nM by KINOMEscan assay
[24] = molecular target: Interleukin-1 receptor-associated kinase 1 (Homo sapiens) (UniProt P51617); test: Binding affinity to partial length wild-type human […] (R194 to S712 residues) expressed in mammalian expression system assessed as unbound drug level at 300 nM by KINOMEscan assay
Sequence of Interleukin-1 receptor-associated kinase 1 (Homo sapiens) (P51617 whole entry, looked up, the tested form may be a part): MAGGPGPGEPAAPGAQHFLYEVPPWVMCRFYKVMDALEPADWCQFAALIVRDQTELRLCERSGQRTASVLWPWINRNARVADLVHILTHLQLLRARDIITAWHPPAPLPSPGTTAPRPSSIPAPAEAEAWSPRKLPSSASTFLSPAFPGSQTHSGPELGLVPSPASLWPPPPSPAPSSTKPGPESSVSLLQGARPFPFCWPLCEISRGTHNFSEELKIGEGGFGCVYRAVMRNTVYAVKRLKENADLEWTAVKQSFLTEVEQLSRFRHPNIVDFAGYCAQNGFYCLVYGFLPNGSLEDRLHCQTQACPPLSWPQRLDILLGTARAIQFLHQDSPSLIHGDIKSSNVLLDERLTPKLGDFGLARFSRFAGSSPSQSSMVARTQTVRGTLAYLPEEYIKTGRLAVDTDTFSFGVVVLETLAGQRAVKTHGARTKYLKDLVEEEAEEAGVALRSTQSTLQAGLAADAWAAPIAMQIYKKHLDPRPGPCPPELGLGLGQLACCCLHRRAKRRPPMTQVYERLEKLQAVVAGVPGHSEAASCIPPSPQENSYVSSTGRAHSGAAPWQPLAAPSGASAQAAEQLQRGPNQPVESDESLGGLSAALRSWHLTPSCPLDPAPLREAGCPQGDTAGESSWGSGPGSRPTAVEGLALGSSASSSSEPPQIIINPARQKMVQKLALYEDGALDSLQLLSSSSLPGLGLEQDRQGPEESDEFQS

MV4-11 = test: Growth inhibition of human MV411 cells after 196 hrs by CellTiter-Glo luminescence assay; type: functional; conditions: MV4-11, 196 h
[25] = molecular target: CDK8/Cyclin C (Homo sapiens) (UniProt P49336+P24863); conditions: 1 uM
Description: Inhibition of kinase tracer-236 binding to GST-tagged CDK8/CyclinC (unknown origin) at 1 uM after 60 mins by TR-FRET assay relative to control

[26] = molecular target: Cyclin-C/Cyclin-dependent kinase 19 (Homo sapiens) (UniProt Q9BWU1+P24863); conditions: 1 uM
Description: Inhibition of kinase tracer-236 binding to GST-tagged CDK19/CyclinC (unknown origin) at 1 uM after 60 mins by TR-FRET assay relative to control

[27] = molecular target: T1, Cyclin-dependent kinase 19; conditions: 300 nM
[28] = molecular target: T3, Homeodomain-interacting protein kinase 1; conditions: 300 nM
[29] = molecular target: T2, Cyclin-dependent kinase 8; test: Inhibition of CDK8 in human SW480 cells assessed as decrease in STAT1 phosphorylation at Ser727 after 2 hrs by Western blot method

COCCNC(=O)c1ccc(Oc2sc(C(N)=O)c3c2-c2sncc2CC3)cn1 gave a T/C (RPMI-8226 [1]) of -1%, a T/C (RPMI-8226 [2]) of 27% and a solubility [3] of 0.047 mg/mL (≈ 109 µM). The Kd [4] was 0.025 µM, the Kd [5] was 0.046 µM and the Kd [6] was 0.097 µM. For the same compound, the Kd [7] was 0.16 µM, the Kd (Ephrin type-A receptor 3) was greater than 3 µM and the MRT [8] was 1.93 h. The bioavailability [9] was 98.5%, the half-life [10] was 2.1 h and the Activity (Mus musculus [11]) was 0.9%. The Activity (Mus musculus [12]) was 10.2%, the inhibition [13] was 62% and the inhibition [14] was 83%. The inhibition [15] was 0%, the inhibition [16] was 2% and the inhibition [17] was “inactive”. The inhibition [18] was “inactive”, the inhibition [19] was “inactive” and the inhibition [20] was “inactive”. For the same compound, the inhibition [21] was “inactive”, the inhibition [22] was “inactive” and the Fu [23] was 0.41%. For the same compound, the Fu [24] was 0.49%, the GI50 (MV4-11) was 0.0016 µM and the inhibition [25] was 105%. It also gave an inhibition [26] of 100%, a Fu [27] of 0.046% and a Fu [28] of 0.32%. For the same compound, the EC50 [29] was 0.0013 µM.
